Assay results taken from patent publication US7205410B2, “4-(aminomethyl)-piperidine benzamides for treating gastrointestinal disorders” (Janssen Pharmaceutica, N.V., priority 1998, dated 2007).

Target: T1, 5HT4 (Rattus norvegicus, UniProt Q62758)
T1 construct: 5HT4 Antagonism in Rat Oesophageal Tunica Muscularis Mucosae; from tissue; host or cells: rat oesophageal tunica muscularis mucosae
Assay: 5HT4 antagonism in rat oesophageal tunica muscularis mucosae
Assay type: cell-based
Conditions: 5HT4 antagonistic data; isolated rat oesophageal tunica muscularis mucosae, method of Baxter et al.
Description: 5HT4 Antagonism in Rat Oesophageal Tunica Muscularis Mucosae
The 5HT4 antagonistic potence of the present compounds was measured as described in Baxter G. S. et. al, Naunyn-Schmiedeberg's Arch. Pharmacol., 343, 439-446 ([…]).
The pA2 value is calculated as follows: [formula]

T1 sequence (Q62758 whole entry): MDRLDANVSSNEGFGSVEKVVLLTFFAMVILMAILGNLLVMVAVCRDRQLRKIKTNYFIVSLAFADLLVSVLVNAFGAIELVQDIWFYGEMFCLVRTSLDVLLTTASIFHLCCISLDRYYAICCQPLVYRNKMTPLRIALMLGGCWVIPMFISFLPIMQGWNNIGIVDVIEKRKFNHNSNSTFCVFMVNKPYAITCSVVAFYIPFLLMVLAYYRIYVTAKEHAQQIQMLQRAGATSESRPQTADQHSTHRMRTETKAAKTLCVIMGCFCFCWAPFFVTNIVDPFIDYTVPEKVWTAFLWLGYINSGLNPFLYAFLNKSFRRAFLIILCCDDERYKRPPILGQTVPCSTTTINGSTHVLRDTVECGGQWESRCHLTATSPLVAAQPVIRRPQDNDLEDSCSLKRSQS

SMILES	pA2
O=C(CN1CCC(CNC(=O)c2cc(Cl)cc3c2OCC3)C(O)C1)c1ccccc1 (stereo not shown) [Compound 15]	8.4
O=C(NCC1CCN(Cc2ccccc2)CC1O)c1cc(Cl)cc2c1OCCC2 (stereo not shown) [Compound 41]	9.7
O=C(CN1CCC(CNC(=O)c2cc(Cl)cc3c2OCCC3)C(O)C1)c1ccccc1.O=C(O)C(=O)O (stereo not shown) [Compound 42]	9.5
O=C(NCC1CCN(CCCOc2ccc(F)cc2)CC1O)c1cc(Cl)cc2c1OCCC2 (stereo not shown) [Compound 43]	9.8
O=C(NCC1CCN(CCOCCO)CC1O)c1cc(Cl)cc2c1OCCC2.O=C(O)C(=O)O (stereo not shown) [Compound 52]	9.5
COCCCN1CCC(CNC(=O)c2cc(Cl)cc3c2OCCO3)C(O)C1.O=C(O)C(=O)O (stereo not shown) [Compound 66]	9.26
N#CCCCN1CCC(CNC(=O)c2cc(Cl)cc3c2OCCO3)C(O)C1.O=C(O)C(=O)O (stereo not shown) [Compound 74]	9.22
O=C(NCC1CCN(Cc2ccccc2)CC1O)c1cc(Cl)cc2c1OCCO2 (stereo not shown) [Compound 77]	9.19
O=C(CN1CCC(CNC(=O)c2cc(Cl)cc3c2OCCO3)C(O)C1)c1ccccc1.O=C(O)C(=O)O (stereo not shown) [Compound 78]	8.44
O=C(NCC1CCN(CCCOc2ccc(F)cc2)CC1O)c1cc(Cl)cc2c1OCCO2 (stereo not shown) [Compound 79]	7.93
O=C(NCC1CCN(CCCOc2ccc(F)cc2)CC1O)c1cc(Cl)cc2c1OCCO2.O=C(O)C(=O)O (stereo not shown) [Compound 80]	8.83
CCCCN1CCC(CNC(=O)c2cc(Cl)cc3c2OCCO3)C(OC)C1.O=C(O)C(=O)O (stereo not shown) [Compound 86]	8.2
COCCCN1CCC(CNC(=O)c2cc(Cl)cc3c2OCCO3)C(OC)C1.O=C(O)C(=O)O (stereo not shown) [Compound 87]	8.46
COC1CN(CCCOc2ccc(F)cc2)CCC1CNC(=O)c1cc(Cl)cc2c1OCCO2.O=C(O)C(=O)O (stereo not shown) [Compound 88]	9.2
COC1CN(Cc2ccccc2)CCC1CNC(=O)c1cc(Cl)cc2c1OCCO2 (stereo not shown) [Compound 89]	<8
Cl.O=C(NCC1CCN(CCOCCO)CC1O)c1cc(Cl)cc2c1OCCO2 (stereo not shown) [Compound 92]	9.7
Cl.O=C(O)CCCN1CCC(CNC(=O)c2cc(Cl)cc3c2OCCO3)C(O)C1 (stereo not shown) [Compound 94]	9.24
CCCCN1CCC(O)(CNC(=O)c2cc(Cl)cc3c2OCCO3)CC1.Cl [Compound 100]	<8
COCCCN1CCC(O)(CNC(=O)c2cc(Cl)cc3c2OCCO3)CC1.O=C(O)C(=O)O [Compound 101]	<7
CS(=O)(=O)CCCN1CCC(O)(CNC(=O)c2cc(Cl)cc3c2OCCO3)CC1 [Compound 103]	<8

SMILES	pA2
CC(=O)CCCN1CCC(O)(CNC(=O)c2cc(Cl)cc3c2OCCO3)CC1 [Compound 106]	<8
O=C(NCC1(O)CCN(CCOCCO)CC1)c1cc(Cl)cc2c1OCCO2.O=C(O)/C=C\C(=O)O [Compound 107]	<8
CC(C)n1ccn(CCN2CCC(O)(CNC(=O)c3cc(Cl)cc4c3OCCO4)CC2)c1=O.O=C(O)C(=O)O [Compound 116]	˜8
O=C(NCC1(O)CCN(CCC2OCCCO2)CC1)c1cc(Cl)cc2c1OCCO2 [Compound 117]	<8
COCCCN1CCC(CNC(=O)c2cc(Cl)cc3c2OCCCO3)C(OC)C1.O=C(O)C(=O)O (stereo not shown) [Compound 129]	>8
CCCCN1CCC(CNC(=O)c2cc(Cl)cc3c2OCCCO3)C(OC)C1.O=C(O)C(=O)O (stereo not shown) [Compound 130]	8.5
CCCCN1CCC(CNC(=O)c2cc(Cl)cc3c2OCCCO3)C(OC)C1.O=C(O)C(=O)O (stereo not shown) [Compound 131]	9.5
COC1CN(Cc2ccccc2)CCC1CNC(=O)c1cc(Cl)cc2c1OCCCO2 (stereo not shown) [Compound 132]	8.5
COC1CN(CCCC(C)=O)CCC1CNC(=O)c1cc(Cl)cc2c1OCCCO2.O=C(O)C(=O)O (stereo not shown) [Compound 135]	8.1
COC1CN(CCCC(C)=O)CCC1CNC(=O)c1cc(Cl)cc2c1OCCCO2.O=C(O)C(=O)O (stereo not shown) [Compound 139]	8.6
Cl.O=C(O)CCCN1CCC(CNC(=O)c2cc(Cl)cc3c2OCCCO3)C(O)C1 (stereo not shown) [Compound 146]	9.1
N#CCCCN1CCC(O)(CNC(=O)c2cc(Cl)cc3c2OCCCO3)CC1.O=C(O)C(=O)O [Compound 167]	<8
COCCCN1CCC(O)(CNC(=O)c2cc(Cl)cc3c2OCCCO3)CC1.O=C(O)C(=O)O [Compound 168]	<8
CS(=O)(=O)CCCN1CCC(O)(CNC(=O)c2cc(Cl)cc3c2OCCCO3)CC1.O [Compound 169]	<8
CCCCN1CCC(O)(CNC(=O)c2cc(Cl)cc3c2OCCCO3)CC1.O=C(O)C(=O)O [Compound 171]	<8
CC(=O)CCCN1CCC(O)(CNC(=O)c2cc(Cl)cc3c2OCCCO3)CC1.O [Compound 180]	˜7.5
N#CCCCN1CCC(CNC(=O)c2cc(Cl)cc3c2OCCCCO3)C(O)C1.O=C(O)C(=O)O (stereo not shown) [Compound 188]	10.5
O=C(NCC1CCN(CCOCCO)CC1O)c1cc(Cl)cc2c1OCCCCO2 (stereo not shown) [Compound 190]	8.3
Cl.O=C(O)CCCN1CCC(CNC(=O)c2cc(Cl)cc3c2OCCCCO3)C(O)C1 (stereo not shown) [Compound 194]	9

Results, then the compound that gave them:

pA2	SMILES
8.53	CCCCN1CCC(CNC(=O)c2cc(Cl)cc3c2OCC3)C(O)C1 (stereo not shown) [Compound 1]
10.5	CCCCN1CCC(CNC(=O)c2cc(Cl)cc3c2OCC3)C(O)C1 (stereo not shown) [Compound 2]
8.07	COCCCN1CCC(CNC(=O)c2cc(Cl)cc3c2OCC3)C(O)C1 (stereo not shown) [Compound 3]
8.76	O=C(NCC1CCN(Cc2ccccc2)CC1O)c1cc(Cl)cc2c1OCC2 (stereo not shown) [Compound 11]
10.2	O=C(NCC1CCN(Cc2ccccc2)CC1O)c1cc(Cl)cc2c1OCC2 (stereo not shown) [Compound 12]
8.35	O=C(NCC1CCN(CCCOc2ccc(F)cc2)CC1O)c1cc(Cl)cc2c1OCC2 (stereo not shown) [Compound 13]
9.2	O=C(NCC1CCN(CCCOc2ccc(F)cc2)CC1O)c1cc(Cl)cc2c1OCC2 (stereo not shown) [Compound 14]
9.6	CS(=O)(=O)NCCN1CCC(CNC(=O)c2cc(Cl)cc3c2OCC3)C(O)C1 (stereo not shown) [Compound 17]
9.6	O=C(NCC1CCN(CCOCCO)CC1O)c1cc(Cl)cc2c1OCC2 (stereo not shown) [Compound 29]
9.4	COC(=O)CCCN1CCC(CNC(=O)c2cc(Cl)cc3c2OCC3)C(O)C1 (stereo not shown) [Compound 31]
<8	Cl.O=C(O)CCCN1CCC(CNC(=O)c2cc(Cl)cc3c2OCC3)C(O)C1 (stereo not shown) [Compound 32]
9.8	CCCCN1CCC(CNC(=O)c2cc(Cl)cc3c2OCCC3)C(O)C1 (stereo not shown) [Compound 36]
9.81	O=C(NCC1CCN(CCCO)CC1O)c1cc(Cl)cc2c1OCCC2 (stereo not shown) [Compound 39]
9.5	COC(=O)CCCN1CCC(CNC(=O)c2cc(Cl)cc3c2OCCC3)C(O)C1 (stereo not shown) [Compound 53]
9.8	Cl.O=C(O)CCCN1CCC(CNC(=O)c2cc(Cl)cc3c2OCCC3)C(O)C1 (stereo not shown) [Compound 54]
9.49	CCCCN1CCC(CNC(=O)c2cc(Cl)cc3c2OCCO3)C(O)C1.O=C(O)C(=O)O (stereo not shown) [Compound 63]
9.04	O=C(NCC1CCN(CCCO)CC1O)c1cc(Cl)cc2c1OCCO2 (stereo not shown) [Compound 68]
9.4	COC(=O)CCCN1CCC(CNC(=O)c2cc(Cl)cc3c2OCCO3)C(O)C1 (stereo not shown) [Compound 93]
10.65	CCCCN1CCC(CNC(=O)c2cc(Cl)cc3c2OCCCO3)C(O)C1 (stereo not shown) [Compound 119]
9.72	COCCCN1CCC(CNC(=O)c2cc(Cl)cc3c2OCCCO3)C(O)C1 (stereo not shown) [Compound 120]
9.9	CC(=O)CCCN1CCC(CNC(=O)c2cc(Cl)cc3c2OCCCO3)C(O)C1 (stereo not shown) [Compound 121]
9.78	N#CCCCN1CCC(CNC(=O)c2cc(Cl)cc3c2OCCCO3)C(O)C1 (stereo not shown) [Compound 126]
10.4	O=C(NCC1CCN(CCCO)CC1O)c1cc(Cl)cc2c1OCCCO2 (stereo not shown) [Compound 144]
9.4	CCCCN1CCC(CNC(=O)c2cc(Cl)cc3c2OCCCCO3)C(O)C1.O (stereo not shown) [Compound 182]
10.1	O=C(NCC1CCN(CCCO)CC1O)c1cc(Cl)cc2c1OCCCCO2 (stereo not shown) [Compound 192]

Same assay, conditions: 5HT4 antagonistic data; isolated rat oesophageal tunica muscularis mucosae, method of Baxter et al.; read-out: pA2 (converted)

SMILES	Kb
Cc1nccnc1NCCCN1CC[C@@H](CNC(=O)c2cc(Cl)cc3c2OCCO3)[C@H](O)C1 (racemic) [Compound 84, (±)-(trans)-7-chloro-2,3-dihydro-N-[[3-hydroxy-1-[3-[(3-methyl-2-pyrazinyl)amino]propyl]-4-piperidinyl]methyl]-1,4-benzodioxin-5-carboxamide]	0.0282 nM
O=C(NC[C@@H]1CCN(CCNc2nccc(O)n2)C[C@H]1O)c1cc(Cl)cc2c1OCCO2 (relative stereo) [Compound 85, (trans)-7-chloro-2,3-dihydro-N-[[3-hydroxy-1-[2-[(4-hydroxy-2 pyrimidinyl)amino]-ethyl]-4-piperidinyl]methyl]-1,4-benzodioxin-5-carboxamide monohydrate]	0.302 nM

Next, values leading:

Kb	SMILES
0.1 nM	CCCCN1CC[C@@H](CNC(=O)c2cc(Cl)cc3c2OCCO3)[C@H](O)C1 (racemic) [Compound 64, (±)-(trans)-N-[(1-butyl-3-hydroxy-4-piperidinyl)methyl]-7-chloro-2,3-dihydro-1,4-benzodioxin-5-carboxamide]
0.363 nM	CC(=O)CCCN1CC[C@@H](CNC(=O)c2cc(Cl)cc3c2OCCO3)[C@H](O)C1 (racemic) [Compound 65, (±)-(trans)-7-chloro-2,3 dihydro-N-[[3-hydroxy-1-(4-oxopentyl)-4-piperidinyl]methyl]-1,4-benzodioxin-5-carboxamide]
0.372 nM	COCCCN1CC[C@@H](CNC(=O)c2cc(Cl)cc3c2OCCO3)[C@H](O)C1 (racemic) [Compound 67, (±)-(trans)-7-chloro-2,3-dihydro-N-[[3-hydroxy-1-(3-methoxy-propyl)-4-piperidinyl]methyl]-1,4-benzodioxin-5-carboxamide]

System: not given
Assay: not given
Conditions: not given

melting point	SMILES
112 °C	CCCCN1CC[C@@H](CNC(=O)c2cc(Cl)cc3c2OCCO3)[C@H](O)C1 (racemic) [Compound 64, (±)-(trans)-N-[(1-butyl-3-hydroxy-4-piperidinyl)methyl]-7-chloro-2,3-dihydro-1,4-benzodioxin-5-carboxamide]
